Test results taken from article PMC7274539, “The selective glucocorticoid receptor antagonist CORT125281 has tissue-specific activity” (The Journal of Endocrinology, 2020).

Experiments:
[1] = test system: male C57Bl/6J mice; test: Subchronic corticosterone exposure (pellet): body composition, organ weights, leukocytes, plasma insulin, glucose, lipids; type: in vivo
Protocol: (§1) All studies involving animals were approved by the institutional ethics committee on animal care and experimentation at the Leiden University Medical Center. The 8-week old male C57Bl/6J mice (Charles River) were housed in ventilated cages with a 12 h light:12 h darkness regime and ad libitum access to food and water. In the acute corticosterone exposure experiments, mice received a synthetic chow diet (Research Diets, New Brunswick, NJ, USA) containing vehicle or CORT125281 (6, 20 or 60 mg/kg/day, Corcept Therapeutics, Menlo Park, CA, USA) for 6 days. […] Mice were treated daily with vehicle, 60 mg/kg mifepristone (Corcept Therapeutics) or 60 mg/kg CORT125281 (dissolved in PBS with 0.1% Tween 80 and 0.5% hydroxypropylmethylcellullose, Corcept Therapeutics) via oral gavage for 5 days, after which mice were killed by CO2 inhalation. Throughout the experiment, body weight was monitored and body composition was determined with EchoMRI™ (Frankfurt, Germany). After 5 days, blood was collected from the lateral tail vain in paraoxon-coated capillaries after a 6-h fast. Plasma triglyceride, total cholesterol, free fatty acid, glucose and insulin levels were determined using commercially available kits (Roche; Instruchemie, Delfzijl, Netherlands and Crystal Chem, Zaandam, Netherlands). Blood concentrations of the major leukocyte classes, that is, lymphocytes, monocytes and eosinophils, were determined in whole blood using an automatic veterinary hematology analysis (Sysmex XT-2000iV; Goffin Meyvis, Etten-Leur, the Netherlands).
(§2) In both acute and subchronic corticosterone experiments, relevant tissues (including quadriceps muscle, interscapular BAT, gonadal white adipose tissue (WAT), adrenals, spleen, thymus, pituitary and hippocampus) were collected to determine tissue weight and/or for further molecular analysis.

[2] = test system: GR transcriptional activity; test: Acute corticosterone exposure or basal conditions: RT-qPCR of GR target genes in tissues; type: in vivo, C57Bl/6J mice; conditions: corticosterone 1.5 mg/kg s.c., 1 h; liver, muscle, BAT, WAT, hippocampus; except Sgk1 in muscle, hippocampus and Mt2a in hippocampus
Protocol: as §1, §2
(§3) Total RNA was isolated from snap-frozen tissues using TriPure isolation reagent (Roche). After reverse transcription to cDNA (Promega), RT-qPCR was performed using IQ SYBR-Green supermix and MyIQ thermal cycler (Bio-RAD CFX96). Primers were tested for high efficiency (90–110%) and for amplification of a single PCR product. All primer sequences are listed in Supplementary Table 1 (see section on supplementary materials given at the end of this article), with the exception of Ncor1 and Ncor2 which were purchased from Qiagen. Fold change expression was calculated using the 2^−ΔΔ^CT method.

[3] = biological target: T1, human GR ligand-binding domain (Homo sapiens, UniProt P04150); test: MARCoNI peptide interaction profiling (coregulator-nuclear receptor interaction); type: biochemical; conditions: for interactions at a number of motifs (dexamethasone-exclusive cluster): 1 µM; for ligand-induced interaction at the majority of coregulator motifs: cortisol 1 µM, dexamethasone 1 µM
T1 construct: purchased Invitrogen PV4689
T1 sequence (P04150 524-758 limits assumed): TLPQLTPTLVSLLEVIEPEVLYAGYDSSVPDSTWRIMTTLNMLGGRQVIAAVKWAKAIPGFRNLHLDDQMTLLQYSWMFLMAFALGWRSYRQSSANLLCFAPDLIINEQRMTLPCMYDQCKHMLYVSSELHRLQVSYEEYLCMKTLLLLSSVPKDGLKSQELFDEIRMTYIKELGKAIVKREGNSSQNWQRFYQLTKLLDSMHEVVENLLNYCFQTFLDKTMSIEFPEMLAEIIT
Protocol: As the assay utilizes human GR, experiments were performed with cortisol rather than corticosterone. […] Incubation was performed at 20°C in a PamStation96 (PamGene International, Den Bosch, Netherlands) for 40 min. Receptor binding to each peptide on the array, reflected by a fluorescent signal, was quantified by analysis of .tiff images using BioNavigator software (PamGene International).

[4] = test system: HPA-axis activity; parameters: method as in Kroon et al. 2018; conditions: chronic administration via the food; ref Kroon et al. 2018; cited from earlier work
[5] = test system: progesterone receptor; parameters: method as in earlier work; conditions: ref Jung-Testas & Baulieu 1983, Gaillard et al. 1984, Kloosterboer et al. 1995, Kroon et al. 2018; cited from earlier work
[6] = test system: GR transcriptional activity; test: Subchronic corticosterone exposure: RT-qPCR of GR and insulin target genes in tissues; type: in vivo, C57Bl/6J mice
Protocol: as §1, §2, §3

[7] = test system: GR; parameters: method as in Lahteenmaki et al. 1987, Kroon et al. 2018; conditions: half maximal inhibitory concentration of the GR antagonist; ref Lahteenmaki et al. 1987, Kroon et al. 2018; cited from earlier work
[8] = test system: androgen receptor; conditions: ref Jung-Testas & Baulieu 1983, Gaillard et al. 1984, Kloosterboer et al. 1995, Kroon et al. 2018; cited from earlier work
[9] = test system: GR; conditions: mifepristone; ref Havel et al. 1996, van den Heuvel et al. 2016, Kroon et al. 2018; cited from earlier work
[10] = corticosterone pellet 12.5 mg, 5 days, no antagonist
[11] = mifepristone 0.1 µM, CORT125281 1 µM
[12] = corticosterone pellet 5 days, 60 mg/kg/day oral gavage

Compound: C[C@]12C[C@H](O)[C@H]3[C@@H](CCC4=CC(=O)CC[C@@]43C)[C@@H]1CC[C@@H]2C(=O)CO [corticosterone]
- fat mass under subchronic corticosterone exposure [1, 10]: increase
- lean mass under subchronic corticosterone exposure [1, 10]: reduced
- plasma insulin under subchronic corticosterone exposure [1, 10]: induced hyperinsulinemia
- spleen weight under subchronic corticosterone exposure [1, 10]: decreased
- Eosinophil count ([1]; corticosterone pellet 5 days, no antagonist): Not detected
- expression of GR target genes Fkbp5, Gilz, Sgk1, Mt2a after corticosterone injection [2]: upregulated expression of all GR target genes

Compound: C[C@]12CCC(=O)C=C1CC[C@@H]1[C@@H]2[C@@H](O)C[C@@]2(C)[C@H]1CC[C@]2(O)C(=O)CO [cortisol]
- interactions at a number of motifs (dexamethasone-exclusive cluster) [3]: without effect
- ligand-induced interaction at the majority of coregulator motifs [3, 11]: induced motif binding

Compound: C[C@@H]1C[C@H]2[C@@H]3CCC4=CC(=O)C=C[C@]4(C)[C@@]3(F)[C@@H](O)C[C@]2(C)[C@@]1(O)C(=O)CO [dexamethasone]
- interactions at a number of motifs (dexamethasone-exclusive cluster) [3]: induced substantial interactions
- ligand-induced interaction at the majority of coregulator motifs [3, 11]: induced motif binding

Compound: CC#C[C@]1(O)CC[C@H]2[C@@H]3CCC4=CC(=O)CCC4=C3[C@@H](c3ccc(N(C)C)cc3)C[C@@]21C [mifepristone]
- binding of corepressor motifs of NCOR1 and NCOR2 (SMRT) by ligand-GR complex [3, 11]: strongly bound
- endogenous corticosterone levels [4]: suppressed
- HOMA-IR [1, 12]: improved
- corticosterone-induced decrease of spleen weight [1, 12]: prevented
- corticosterone-induced fat mass [1, 12]: non-significantly reduced
- corticosterone-induced hyperlipidaemia (plasma triglycerides, total cholesterol) [1, 12]: seemed to modestly reduce
- corticosterone-induced immune suppression (total white blood cells, lymphocytes, monocytes, eosinophils) [1, 12]: fully prevented
- free fatty acid levels [1, 12]: did not affect
- glucose levels [1, 12]: improved
- lean mass (reduced by corticosterone) [1, 12]: not altered
- corticosterone-induced hyperinsulinemia ([1]; corticosterone pellet 5 days, 60 mg/kg/day oral gavage, 6-h fast): fully prevented
- activity at the progesterone receptor [5]: antagonizes
- basal mRNA expression of some GR target genes (Gilz in liver, muscle and BAT; Mt2a in BAT) ([6]; 60 mg/kg/day oral gavage 5 days, sham pellet): reduced
- corticosterone-induced expression of GR target genes (Fkbp5, Gilz, Sgk1, Mt2a) ([6]; corticosterone pellet 5 days, 60 mg/kg/day oral gavage, liver, muscle, BAT, WAT, hippocampus): effectively prevented
- IC50 [7]: 43 nM
- activity at the androgen receptor [8]: antagonizes
- partial agonism at GR [9]: partial agonistic properties
